Assay results reported in patent US8883821B2, “Substituted pyrazolo[3,4-b]pyridines as medicaments” (Pierre Fabre Medicament, priority 2011, dated 2014).

Tested on: human anaplastic large-cell lymphoma (ALCL) tumor model
Experiment: Antitumor activity in vivo, ALCL tumors grafted subcutaneously in mice, oral daily dosing
Settings: mice with subcutaneous ALCL tumors, daily schedule, animals weighed
Description: Pharmacological Activity In Vivo
The compounds were administered orally at various doses on a daily schedule to mice with ALCL tumors grafted subcutaneously. Tumor size was measured regularly during the study and the animals were weighed several times per week in order to identify any adverse effects. A compound is declared active if it induces inhibition of ALCL tumor growth by at least 58%.

## CN1CCN(c2ccc(C(=O)Nc3n[nH]c4ncc(Sc5cc(F)cc(F)c5)cc34)c(NC3CCOCC3)c2)CC1 [Example 30, N-(5-(3,5-difluorophenylthio)-1-H-pyrazolo[3,4-b]pyridine-3-yl)-4-(4-methylpiperazine-1-yl)-2-(tetrahydro-2H-pyran-4-ylamino)benzamide]
  adverse effects / tolerance in vivo: no adverse effects

## CN1CCN(c2ccc(C(=O)Nc3n[nH]c4ncc(Cc5cc(F)cc(F)c5)cc34)c(NC3CCOCC3)c2)CC1 [Example 30-9, N-(5-(3,5-difluorobenzyl)-1H-pyrazolo[3,4-b]pyridin-3-yl)-4-(4-methylpiperazin-1-yl)-2-(tetrahydro-2H-pyran-4-ylamino)benzamide]
  adverse effects / tolerance in vivo: no adverse effects
